Laboratory results from patent US7598244B2, “[1,2,4]triazolo[1,5,a]pyrimidin-2-ylurea derivative and use thereof” (Nippon Kayaku Kabushiki Kaisha, priority 2003, dated 2009).

Columns and labels:
MHC class I = test: Expression of antigen-presenting and costimulatory molecules of human peripheral blood-derived dendritic cells: MHC class I; assay type: cell-based
Experimental: Action on Expression of Antigen-Presenting Molecules and Costimulatory Molecules of Human Peripheral Blood-Derived Dendritic Cells
The dendritic cells obtained by the same method as in Test Example 2 were suspended in RPMI 1640 comprising 10% FCS containing 500 U/ml GM-CSF, 50 ng/ml IL-4, and 100 U/ml human recombinant tumor necrosis factor (2.5×10^6 cells/ml). Thereafter, the suspension was inoculated into a 6-well plate at an amount of 2.0 ml/well, and the test compound was then added thereto. The mixture was cultured at 37° C. for 3 days in an incubator containing 5% carbon dioxide. Thereafter, the suspended cells were recovered. The cells were then stained with fluoroisothiocyanate-labeled mouse monoclonal antibodies reacting with MHC class I (Bechman Coulter), CD1a (Immunotech), CD40 (Pharmingen), CD80 (Pharmingen), and CD83 (Immunotech). Thereafter, mean fluorescence intensity and the ratio of positive cells were measured by flow cytometry. The expression level was calculated by the formula “the mean fluorescence intensity x the ratio of positive cells,” and the inhibition rate of the surface antigen expression level of dendritic cells was then obtained by the following formula (8).
[formula] • Eexp: Expression level of surface antigens of dendritic cells cultured in the presence of test compound • Cexp: Expression level of surface antigens of dendritic cells cultured in the absence of test compound

[1] = system: MHC class I molecules of human peripheral blood-derived dendritic cells; test: Effect on expression of MHC class I molecules from human peripheral blood-derived dendritic cells; assay type: cell-based; conditions: dendritic cells matured with TNF-α, 3 days; read-out: EC50 (reduction of 50% of the number of cells wherein MHC class I molecules were highly expressed)
In short: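 Human blood CD14+ monocytes differentiated 7 days with GM-CSF 500 U/ml and IL-4 50 ng/ml into immature dendritic cells. These were matured with 100 U/ml TNF-α plus test compound for 3 days at 37 °C. MHC class I-high fraction measured by flow cytometry (W6/32 antibody); EC50 is concentration giving 50% reduction versus untreated.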

## CC(C)NC(=O)Nc1nc2nccc(-c3cccs3)n2n1 [Example 029, 1-isopropyl-3-(7-thiophen-2-yl[1,2,4]triazolo[1,5-a]pyrimidin-2-yl)urea]
MHC class I; Analyte 1, 3 days
  Expression inhibition rate by test compound (%), MHC class I: 72.3%
MHC class I; Analyte 2, 3 days
  Expression inhibition rate by test compound (%), MHC class I: 63.9%
MHC class I; Analyte 3, 3 days
  Expression inhibition rate by test compound (%), MHC class I: 72.6%
[1]
  EC50: 480 nM
